Measured values: publication PMC5218480 (PLoS ONE, 2017)

Tested on: MV-4-11 cells
Test: Gene expression microarray analysis (Affymetrix PrimeView) and GSEA
Assay type: cell-based, human
Set-up: RFU PODN (11730768_x_at) / Fold change /veh PODN (11730768_x_at) / RFU LINC00158 (11744669_a_at) / Fold change /veh LINC00158 (11744669_a_at) / RFU DUSP10 (11751237_a_at) / Fold change /veh DUSP10 (11751237_a_at) / RFU ID3 (11757404_x_at) / Fold change /veh ID3 (11757404_x_at) / RFU PLEKHG5 (11737974_s_at) / Fold change /veh PLEKHG5 (11737974_s_at) / RFU LRRC4B (11730491_at) / Fold change /veh LRRC4B (11730491_at) / RFU GIMAP4 (11747438_a_at) / Fold change /veh GIMAP4 (11747438_a_at) / RFU KRT8 (11758183_x_at) / Fold change /veh KRT8 (11758183_x_at) / RFU CNN1 (11734310_a_at) / Fold change /veh CNN1 (11734310_a_at) / RFU VPS37D (11726825_at) / Fold change /veh VPS37D (11726825_at) / RFU C10orf10 (11716522_x_at) / Fold change /veh C10orf10 (11716522_x_at) / RFU KIR2DL2 /// KIR2DL4 /// KIR2DL5A /// KIR2DL5B /// KIR2DS1 /// KIR2DS2 /// KIR2DS3 /// KIR2DS4 /// KIR3DL3 /// KIR3DL3 /// KIR3DS1 (11738374_at) / Fold change /veh KIR2DL2 /// KIR2DL4 /// KIR2DL5A /// KIR2DL5B /// KIR2DS1 /// KIR2DS2 /// KIR2DS3 /// KIR2DS4 /// KIR3DL3 /// KIR3DL3 /// KIR3DS1 (11738374_at) / RFU C1QL1 (11718748_at) / Fold change /veh C1QL1 (11718748_at) / RFU TMPRSS4 (11747572_a_at) / Fold change /veh TMPRSS4 (11747572_a_at) / RFU HAMP (11756126_x_at) / Fold change /veh HAMP (11756126_x_at) / RFU RNFT2 (11725882_a_at) / Fold change /veh RNFT2 (11725882_a_at) / RFU NR4A2 (11747474_a_at) / Fold change /veh NR4A2 (11747474_a_at) / RFU ABCC12 (11746883_a_at) / Fold change /veh ABCC12 (11746883_a_at) / RFU TMEM136 (11760407_x_at) / Fold change /veh TMEM136 (11760407_x_at) / RFU CLDN22 /// WWC2 (11732394_at) / Fold change /veh CLDN22 /// WWC2 (11732394_at) / RFU HLA-DPB1 (11760878_x_at) / Fold change /veh HLA-DPB1 (11760878_x_at) / RFU SPINT1 (11716480_a_at) / Fold change /veh SPINT1 (11716480_a_at) / RFU GAP43 (11754022_s_at) / Fold change /veh GAP43 (11754022_s_at) / RFU A4GNT (11735810_at) / Fold change /veh A4GNT (11735810_at) / RFU PRB3 (11715151_x_at) / Fold change /veh PRB3 (11715151_x_at) / RFU TUBB4B (11761932_at) / Fold change /veh TUBB4B (11761932_at) / RFU CAPN14 (11732068_a_at) / Fold change /veh CAPN14 (11732068_a_at) / RFU TMCC2 (11721928_a_at) / Fold change /veh TMCC2 (11721928_a_at) / RFU IRGQ (11745062_a_at) / Fold change /veh IRGQ (11745062_a_at) / RFU FAM174B (11720279_a_at) / Fold change /veh FAM174B (11720279_a_at) / RFU TMPRSS4 (11748680_a_at) / Fold change /veh TMPRSS4 (11748680_a_at) / RFU FAM212B (11763350_a_at) / Fold change /veh FAM212B (11763350_a_at) / RFU PLEKHG5 (11743358_a_at) / Fold change /veh PLEKHG5 (11743358_a_at) / RFU ZSCAN30 (11745921_a_at) / Fold change /veh ZSCAN30 (11745921_a_at) / RFU CMKLR1 (11741424_a_at) / Fold change /veh CMKLR1 (11741424_a_at) / RFU LOC101060620 /// MAPK8IP1 (11723275_at) / Fold change /veh LOC101060620 /// MAPK8IP1 (11723275_at) / RFU SPTSSB (11747773_x_at) / Fold change /veh SPTSSB (11747773_x_at) / RFU PRSS12 (11739890_at) / Fold change /veh PRSS12 (11739890_at) / RFU BIN1 (11741810_x_at) / Fold change /veh BIN1 (11741810_x_at) / RFU WNT11 (11732464_a_at) / Fold change /veh WNT11 (11732464_a_at) / RFU C10orf10 (11716521_a_at) / Fold change /veh C10orf10 (11716521_a_at) / RFU C5orf56 (11738089_at) / Fold change /veh C5orf56 (11738089_at) / RFU CYB561 (11721691_x_at) / Fold change /veh CYB561 (11721691_x_at) / RFU ANKRD19P (11752326_a_at) / Fold change /veh ANKRD19P (11752326_a_at) / RFU OR2T12 /// OR2T33 /// OR2T8 (11738714_s_at) / Fold change /veh OR2T12 /// OR2T33 /// OR2T8 (11738714_s_at) / RFU VCAN (11748164_a_at) / Fold change /veh VCAN (11748164_a_at) / RFU JSRP1 (11732532_at) / Fold change /veh JSRP1 (11732532_at) / RFU KRTAP10-11 (11738290_x_at) / Fold change /veh KRTAP10-11 (11738290_x_at) / RFU MYO3A (11730013_a_at) / Fold change /veh MYO3A (11730013_a_at) / RFU EBF3 (11725865_a_at) / Fold change /veh EBF3 (11725865_a_at) / RFU CAMK2N1 (11719241_x_at) / Fold change /veh CAMK2N1 (11719241_x_at) / RFU C5orf56 (11738088_a_at) / Fold change /veh C5orf56 (11738088_a_at) / RFU OLFML3 (11715873_a_at) / Fold change /veh OLFML3 (11715873_a_at) / RFU LOC100653217 /// NTM (11731650_a_at) / Fold change /veh LOC100653217 /// NTM (11731650_a_at) / RFU MAPK11 (11762145_a_at) / Fold change /veh MAPK11 (11762145_a_at) / RFU FIZ1 (11724087_x_at) / Fold change /veh FIZ1 (11724087_x_at) / RFU OASL (11726364_x_at) / Fold change /veh OASL (11726364_x_at) / RFU SOX15 (11748057_x_at) / Fold change /veh SOX15 (11748057_x_at) / RFU CD79A (11719716_a_at) / Fold change /veh CD79A (11719716_a_at) / RFU HIST1H1D (11736915_at) / Fold change /veh HIST1H1D (11736915_at) / RFU CASKIN2 (11723855_a_at) / Fold change /veh CASKIN2 (11723855_a_at) / RFU LOC730098 (11760151_x_at) / Fold change /veh LOC730098 (11760151_x_at) / RFU OR4N2 (11742367_at) / Fold change /veh OR4N2 (11742367_at) / RFU PRRT2 (11749266_a_at) / Fold change /veh PRRT2 (11749266_a_at) / RFU SNX32 (11753110_a_at) / Fold change /veh SNX32 (11753110_a_at) / RFU CDHR5 (11726645_a_at) / Fold change /veh CDHR5 (11726645_a_at) / RFU RCAN1 (11760418_a_at) / Fold change /veh RCAN1 (11760418_a_at) / RFU FAM167A (11723789_a_at) / Fold change /veh FAM167A (11723789_a_at) / RFU FAM26E (11764081_at) / Fold change /veh FAM26E (11764081_at) / RFU ISYNA1 (11749810_s_at) / Fold change /veh ISYNA1 (11749810_s_at) / RFU ACY1 (11761880_at) / Fold change /veh ACY1 (11761880_at) / RFU 11764098_at / Fold change /veh 11764098_at / RFU SAMD14 (11745864_x_at) / Fold change /veh SAMD14 (11745864_x_at) / RFU NPB (11741838_a_at) / Fold change /veh NPB (11741838_a_at) / RFU TMPRSS6 (11731388_a_at) / Fold change /veh TMPRSS6 (11731388_a_at) / RFU KRTAP10-2 (11738614_at) / Fold change /veh KRTAP10-2 (11738614_at) / RFU ARHGAP8 /// PRR5-ARHGAP8 (11727945_x_at) / Fold change /veh ARHGAP8 /// PRR5-ARHGAP8 (11727945_x_at) / RFU KRTAP5-7 /// NADSYN1 (11734609_at) / Fold change /veh KRTAP5-7 /// NADSYN1 (11734609_at) / RFU RASL12 (11751679_a_at) / Fold change /veh RASL12 (11751679_a_at) / RFU CDKN2B (11736163_a_at) / Fold change /veh CDKN2B (11736163_a_at) / RFU PRF1 (11729649_at) / Fold change /veh PRF1 (11729649_at) / RFU, ZNF638 /// ZNF638-IT1 / Fold change vs veh, ZNF638 /// ZNF638-IT1 / RFU, PANK3 / Fold change vs veh, PANK3 / RFU, SH3YL1 / Fold change vs veh, SH3YL1 / RFU, ZEB2 / Fold change vs veh, ZEB2 / RFU, NRIP1 / Fold change vs veh, NRIP1 / RFU, PTTG1IP / Fold change vs veh, PTTG1IP / RFU, CAPN2 / Fold change vs veh, CAPN2 / RFU, MED14 / Fold change vs veh, MED14 / RFU, SNORA58 / Fold change vs veh, SNORA58 / RFU, C1orf63 / Fold change vs veh, C1orf63 / RFU, LRRFIP1 / Fold change vs veh, LRRFIP1 / RFU, NDUFAF7 / Fold change vs veh, NDUFAF7 / RFU, SLC12A2 / Fold change vs veh, SLC12A2 / RFU, IBTK / Fold change vs veh, IBTK / RFU, ESF1 / Fold change vs veh, ESF1 / Fold change vs veh, TMEM50B / RFU, TAOK1 / Fold change vs veh, TAOK1 / RFU, ACBD3 / Fold change vs veh, ACBD3 / RFU, TMA16 / Fold change vs veh, TMA16 / RFU, RWDD3 / Fold change vs veh, RWDD3 / RFU, BCAT1 / Fold change vs veh, BCAT1 / RFU, EDEM3 / Fold change vs veh, EDEM3 / RFU, TMEM33 / Fold change vs veh, TMEM33 / RFU, WDR75 / Fold change vs veh, WDR75 / RFU, AHCTF1 / Fold change vs veh, AHCTF1 / RFU, TFRC / Fold change vs veh, TFRC / RFU, ZDHHC17 / Fold change vs veh, ZDHHC17 / RFU, NOM1 / Fold change vs veh, NOM1 / RFU, ARL8B / Fold change vs veh, ARL8B / RFU, ZBTB11 / Fold change vs veh, ZBTB11 / RFU, TAMM41 / Fold change vs veh, TAMM41 / RFU, KIAA1704 /// LOC100996395 / Fold change vs veh, KIAA1704 /// LOC100996395 / RFU, ING1 / Fold change vs veh, ING1 / RFU, TRMT61B / Fold change vs veh, TRMT61B / RFU, FUBP3 / Fold change vs veh, FUBP3 / RFU, TP53 / Fold change vs veh, TP53 / RFU, TNKS2 / Fold change vs veh, TNKS2 / RFU, ZFP14 / Fold change vs veh, ZFP14 / RFU, ACTR2 / Fold change vs veh, ACTR2 / RFU, PPP3R1 / Fold change vs veh, PPP3R1 / RFU, PIK3R1 / Fold change vs veh, PIK3R1 / RFU, HNRNPA1 / Fold change vs veh, HNRNPA1 / RFU, RNF170 / Fold change vs veh, RNF170 / RFU, ZNF28 / Fold change vs veh, ZNF28 / RFU, RNGTT / Fold change vs veh, RNGTT / RFU, OGT / Fold change vs veh, OGT / RFU, BRD1 / Fold change vs veh, BRD1 / RFU, MARS / Fold change vs veh, MARS / RFU, ZNF655 / Fold change vs veh, ZNF655 / RFU, FAHD1 / Fold change vs veh, FAHD1 / RFU, BDP1 / Fold change vs veh, BDP1 / RFU, LRRCC1 / Fold change vs veh, LRRCC1 / RFU, ARID1A / Fold change vs veh, ARID1A / RFU, ZNF146 / Fold change vs veh, ZNF146 / RFU, ZNF330 / Fold change vs veh, ZNF330 / RFU, GPN3 / Fold change vs veh, GPN3 / RFU, C9orf123 / Fold change vs veh, C9orf123 / RFU, N4BP2L2 / Fold change vs veh, N4BP2L2 / RFU, ARFIP1 / Fold change vs veh, ARFIP1 / RFU, FAM179B / Fold change vs veh, FAM179B / RFU, BCL10 / Fold change vs veh, BCL10 / RFU, UHRF1BP1L / Fold change vs veh, UHRF1BP1L / RFU, BET1 / Fold change vs veh, BET1 / RFU, CNOT2 / Fold change vs veh, CNOT2 / RFU, ZNF268 / Fold change vs veh, ZNF268 / Fold change vs veh, ZNF507 / RFU, DGCR2 / Fold change vs veh, DGCR2 / RFU, WDSUB1 / Fold change vs veh, WDSUB1 / Fold change vs veh, HSP90B1 /// MIR3652 / RFU, ADSS / Fold change vs veh, ADSS / RFU, GK / Fold change vs veh, GK / RFU, ZNF148 / Fold change vs veh, ZNF148 / RFU, TAF9 / Fold change vs veh, TAF9 / RFU, SLC1A5 / Fold change vs veh, SLC1A5 / RFU, SLMO2 / Fold change vs veh, SLMO2 / RFU, ABCC4 / Fold change vs veh, ABCC4 / RFU, LOC101060439 /// RAP1B / Fold change vs veh, LOC101060439 /// RAP1B / RFU, RFX7 / Fold change vs veh, RFX7 / RFU, GTPBP10 / Fold change vs veh, GTPBP10 / RFU, CNEP1R1 / Fold change vs veh, CNEP1R1 / RFU, BIVM-ERCC5 /// ERCC5 / Fold change vs veh, BIVM-ERCC5 /// ERCC5 / RFU, ILF3 / Fold change vs veh, ILF3 / RFU 11762660_at / Fold change /veh 11762660_at / RFU VCAN (11757783_s_at) / Fold change /veh VCAN (11757783_s_at) / RFU DDX43 (11728927_at) / Fold change /veh DDX43 (11728927_at) / RFU KRT8 (11758188_x_at) / Fold change /veh KRT8 (11758188_x_at) / RFU NKD1 (11759106_at) / Fold change /veh NKD1 (11759106_at) / RFU SRD5A1 (11742802_a_at) / Fold change /veh SRD5A1 (11742802_a_at) / RFU TPSAB1 /// TPSB2 (11721975_s_at) / Fold change /veh TPSAB1 /// TPSB2 (11721975_s_at) / RFU GSTM3 (11746129_a_at) / Fold change /veh GSTM3 (11746129_a_at) / RFU IL23R (11737362_x_at) / Fold change /veh IL23R (11737362_x_at) / RFU TMEM51 (11727254_a_at) / Fold change /veh TMEM51 (11727254_a_at) / RFU PIWIL2 (11732686_x_at) / Fold change /veh PIWIL2 (11732686_x_at) / RFU ORM1 (11744905_x_at) / Fold change /veh ORM1 (11744905_x_at) / RFU CCDC152 (11743942_at) / Fold change /veh CCDC152 (11743942_at) / RFU ECM1 (11717891_a_at) / Fold change /veh ECM1 (11717891_a_at) / RFU IL23R (11748794_a_at) / Fold change /veh IL23R (11748794_a_at) / RFU TNFAIP8L3 (11732012_x_at) / Fold change /veh TNFAIP8L3 (11732012_x_at) / RFU MBOAT4 (11741988_at) / Fold change /veh MBOAT4 (11741988_at) / RFU 11764193_at / Fold change /veh 11764193_at / RFU TMEM53 (11763286_at) / Fold change /veh TMEM53 (11763286_at) / RFU MAGEB2 (11727129_at) / Fold change /veh MAGEB2 (11727129_at) / RFU TMEM200A (11744735_a_at) / Fold change /veh TMEM200A (11744735_a_at) / RFU CCDC152 (11751479_a_at) / Fold change /veh CCDC152 (11751479_a_at) / RFU FAM211A (11726209_a_at) / Fold change /veh FAM211A (11726209_a_at) / RFU RGS16 (11746705_a_at) / Fold change /veh RGS16 (11746705_a_at) / RFU VCAN (11755009_s_at) / Fold change /veh VCAN (11755009_s_at) / RFU RHOB (11743442_s_at) / Fold change /veh RHOB (11743442_s_at) / RFU RGS16 (11720943_a_at) / Fold change /veh RGS16 (11720943_a_at) / RFU RGS16 (11720944_at) / Fold change /veh RGS16 (11720944_at) / RFU, VPS4B / Fold change vs veh, VPS4B / RFU, CREB1 / Fold change vs veh, CREB1 / RFU, DNAJC13 / Fold change vs veh, DNAJC13 / RFU, GNAQ / Fold change vs veh, GNAQ / RFU, CDK5R1 / Fold change vs veh, CDK5R1 / RFU, ZRANB3 / Fold change vs veh, ZRANB3 / RFU, CUL4A / Fold change vs veh, CUL4A / RFU, CCNY / Fold change vs veh, CCNY / RFU, UFL1 / Fold change vs veh, UFL1 / RFU, COG3 / Fold change vs veh, COG3 / RFU, DIAPH2 / Fold change vs veh, DIAPH2 / RFU, SKA2 / Fold change vs veh, SKA2 / RFU, AFF3 / Fold change vs veh, AFF3 / RFU, LMF1 / Fold change vs veh, LMF1 / RFU, IPO11 / Fold change vs veh, IPO11 / RFU, DFFB / Fold change vs veh, DFFB / RFU, FOXP1 / Fold change vs veh, FOXP1 / RFU, CARD8 / Fold change vs veh, CARD8 / RFU, STRN3 / Fold change vs veh, STRN3 / RFU, ADK / Fold change vs veh, ADK / RFU, RASSF2 / Fold change vs veh, RASSF2 / RFU, WIPF1 / Fold change vs veh, WIPF1 / RFU, LARP1B / Fold change vs veh, LARP1B / RFU, RASA1 / Fold change vs veh, RASA1 / RFU, RB1 / Fold change vs veh, RB1 / RFU, PPFIA1 / Fold change vs veh, PPFIA1 / RFU, MAT2A / Fold change vs veh, MAT2A / RFU, CCT5 / Fold change vs veh, CCT5 / RFU, WDR92 / Fold change vs veh, WDR92 / RFU, CUX1 / Fold change vs veh, CUX1 / RFU, TTC7A / Fold change vs veh, TTC7A / RFU, TMEM135 / Fold change vs veh, TMEM135 / RFU, DEPTOR / Fold change vs veh, DEPTOR / RFU, CPM / Fold change vs veh, CPM / RFU, DNAJB6 / Fold change vs veh, DNAJB6 / RFU, CACNA2D3 / Fold change vs veh, CACNA2D3 / RFU, DTX4 / Fold change vs veh, DTX4 / RFU, TFCP2 / Fold change vs veh, TFCP2 / RFU, GMCL1 /// GMCL1P1 / Fold change vs veh, GMCL1 /// GMCL1P1 / RFU, AEBP2 / Fold change vs veh, AEBP2 / RFU, SNHG1 /// SNORD22 /// SNORD25 /// SNORD26 /// SNORD27 /// SNORD28 /// SNORD29 /// SNORD31 / Fold change vs veh, SNHG1 /// SNORD22 /// SNORD25 /// SNORD26 /// SNORD27 /// SNORD28 /// SNORD29 /// SNORD31 / Fold change (Aza/veh), C12orf56 (ProbeSet 11735607_a_at) / Fold change (ACY-1035/veh), C12orf56 (ProbeSet 11735607_a_at) / Fold change (Aza/veh), FGFR1OP (ProbeSet 11751329_s_at) / Fold change (ACY-1035/veh), FGFR1OP (ProbeSet 11751329_s_at) / Fold change (Aza/veh), VPS36 (ProbeSet 11739960_a_at) / Fold change (ACY-1035/veh), VPS36 (ProbeSet 11739960_a_at) / RFU SYPL1 (11715823_x_at) / Fold change /veh SYPL1 (11715823_x_at) / RFU IGFBP7 (11715501_s_at) / Fold change /veh IGFBP7 (11715501_s_at) / RFU REEP3 (11722064_at) / Fold change /veh REEP3 (11722064_at) / RFU IGLL1 (11728026_x_at) / Fold change /veh IGLL1 (11728026_x_at): dose or concentration left out as unconfirmed
Conditions: ProbeSet 11730501_a_at; LIST D

Structure (SMILES): Nc1ccc(-c2cccs2)cc1NC(=O)c1ccc2c(c1)cc(C1CC1)n2CCN1CCOCC1 [ACY-1035]
- RFU, CACNA2D3: 202.11 RFU
